Among the data in PMC9217908, “Screening of commonly prescribed drugs for effects on the CAT1-mediated transport of L-arginine and arginine derivatives” (Amino Acids, 2022) are inhibition values, retold here.

Like-named read-outs stand apart in the source and are kept apart here.

What all share (experiment): cell-based
Assay [1] concerns the target T1, CAT1 (cationic amino acid transporter 1, CAT1/SLC7A1) (Homo sapiens, UniProt P30825).
T1 construct: full-length human transporter stably transfected in HEK cells (HEK-CAT1); net uptake against HEK-VC vector control cells
Details: species or system HEK-CAT1 (HEK293 stably transfected); Inhibition of net CAT1-mediated [3H]-L-arginine (100 uM) uptake, 5 min, scintillation counting, vector control subtracted. To be noted: HEK293, L-arginine 100 uM as substrate; for inhibition at 20 µM: read-out: % Inhibition of L-arginine uptake at 20 µM; for inhibition at 200 µM: read-out: % Inhibition of L-arginine uptake at 200 µM. How it is done:
(§1) Uptake and inhibition assays using HEK-CAT1 and HEK-VC cells and L-arginine, L-homoarginine, and ADMA as substrates were performed using the protocol described (Strobel et al. [2012]; Chafai et al. [2017]). Briefly, after incubation, the supernatant was replaced with transport buffer containing [^3H]- L-arginine for 5 min and 2.5 min for medium containing [^3H]-L-homoarginine or [^3H]-ADMA with or without the test compound. The reference drugs were screened at concentrations of 20 µM (Figs. 1A, 2A, and 3A) and 200 µM (Figs. 1B, 2B, and 3B). […] The net uptake was determined by subtracting the total amount taken up by control cells from the amount taken up by CAT1-expressing cells, which was expressed as a percentage of the amount taken up by the control. To determine the inhibitory effects of the drugs on CAT1-mediated transport of L-arginine, L-homoarginine, or ADMA, the control was measured in the absence of the potential inhibitor. The value for the percent inhibition was calculated as: Inhibition (%) = 100 – (V/V0 ^* 100), where V and V0 are the net uptake rates (uptake into HEK-CAT1 cells—uptake into HEK-VC cells) with and without test drugs, respectively. […] Each bar represents the effect of one compound on CAT1-mediated L-arginine (100 μM) uptake as percent inhibition. Data were obtained from at least two independent experiments performed in triplicate (n = 6–9) and each test data from the independent experiment were normalized to the respective control data to get the value of percent inhibition. Negative inhibition values indicate stimulated CAT1-mediated uptake. Data were analyzed using one-way ANOVA and Dunnett’s multiple comparison test with p < 0.05. Bars showing a statistically significant inhibition or transport stimulation are shaded in black

Assay [2] concerns the target T1, CAT1 (cationic amino acid transporter 1, CAT1/SLC7A1). Details: species or system HEK-CAT1 (HEK293 stably transfected); Inhibition of net CAT1-mediated [3H]-L-homoarginine (1 uM) uptake, 2.5 min, scintillation counting, vector control subtracted. To be noted: HEK293, L-homoarginine 1 uM as substrate; for inhibition at 20 µM: read-out: % Inhibition of L-homoarginine uptake at 20 µM; for inhibition at 200 µM: read-out: % Inhibition of L-homoarginine uptake at 200 µM. How it is done: as §1, with “L-homoarginine (1” for “L-arginine (100”

For assay [3] the target is unchanged. Details: species or system HEK-CAT1 (HEK293 stably transfected); Inhibition of net CAT1-mediated [3H]-ADMA (1 uM) uptake, 2.5 min, scintillation counting, vector control subtracted. To be noted: HEK293, ADMA 1 uM as substrate; for inhibition at 20 µM: read-out: % Inhibition of ADMA uptake at 20 µM; for inhibition at 200 µM: read-out: % Inhibition of ADMA uptake at 200 µM. How it is done:
as §1, with “ADMA (1” for “L-arginine (100”

T1 sequence (P30825 whole entry): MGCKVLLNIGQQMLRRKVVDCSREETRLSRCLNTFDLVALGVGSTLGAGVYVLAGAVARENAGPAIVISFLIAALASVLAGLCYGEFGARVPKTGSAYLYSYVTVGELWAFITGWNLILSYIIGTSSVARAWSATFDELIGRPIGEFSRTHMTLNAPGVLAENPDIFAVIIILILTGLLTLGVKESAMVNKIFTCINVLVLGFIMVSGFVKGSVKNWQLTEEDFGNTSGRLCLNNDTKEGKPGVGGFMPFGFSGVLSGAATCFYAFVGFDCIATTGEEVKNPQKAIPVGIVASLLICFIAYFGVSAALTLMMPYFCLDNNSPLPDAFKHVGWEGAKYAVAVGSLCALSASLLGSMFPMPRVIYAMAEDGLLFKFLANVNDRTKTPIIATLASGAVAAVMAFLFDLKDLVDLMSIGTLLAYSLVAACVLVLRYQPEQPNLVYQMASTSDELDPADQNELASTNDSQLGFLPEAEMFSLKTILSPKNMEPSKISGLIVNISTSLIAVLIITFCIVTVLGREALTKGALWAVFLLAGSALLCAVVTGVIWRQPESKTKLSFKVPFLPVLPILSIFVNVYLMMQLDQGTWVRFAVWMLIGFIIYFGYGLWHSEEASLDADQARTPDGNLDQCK

As for `CC(CN(C)C)CN1c2ccccc2CCc2ccccc21` (stereo not drawn) [Trimipramine], the inhibition – broadly, the relative decrease from the control value, in per cent – at 20 µM in assay [1] is 1.3 ± 2.4%; in assay [2] it was 1.8 ± 4.5%; in assay [3], -26.1 ± 11.5%. Moreover, the inhibition at 200 µM is 24.2 ± 4.5% in assay [1], 34.1 ± 3.8% in assay [2] and -13.4 ± 3.7% in assay [3].

For `CC(=O)N[C@@H](CS)C(=O)O` [Acetylcysteine], the inhibition at 20 µM in assay [1] is -6.6 ± 3.7%; in assay [2] it was -9 ± 1.5%; in assay [3] it was 3.2 ± 3.2%. The inhibition at 200 µM in assay [1] is 4.6 ± 3.3%; in assay [2], 7.5 ± 1.3%; in assay [3], -6.1 ± 4.3%.

Turning to `NC12CC3CC(CC(C3)C1)C2` [Amantadine], the inhibition at 20 µM in assay [1] was -14.2 ± 7.4%; in assay [2] it was 11.9 ± 5.6%; in assay [3] it was 5.3 ± 3%. The inhibition at 200 µM in assay [1] was -76 ± 4.5%; in assay [2] it was -19.7 ± 2.6%; in assay [3], -5.7 ± 11.1%.

As for `CN(C)CCCN1c2ccccc2CCc2ccc(Cl)cc21` [Clomipramine], the inhibition at 20 µM in assay [1] is -4.1 ± 0.9%; in assay [2], -4.5 ± 0.7%; in assay [3] it was 18 ± 3.1%. Further, the values for the inhibition at 200 µM in assay [1], in assay [2] and in assay [3] were -12.8 ± 4.8%, -12.2 ± 3.9% and 14 ± 1.9%, respectively.

As for `O=C(O)Cc1ccccc1Nc1c(Cl)cccc1Cl` [Diclofenac], the results for the inhibition at 20 µM in assay [1], in assay [2] and in assay [3] were -15.9 ± 2.5%, -15.1 ± 2.1% and 26.1 ± 5.3%, respectively. Moreover, the inhibition at 200 µM in assay [1] is -91.4 ± 5%; in assay [2], -23.1 ± 2.2%; in assay [3] it was -21.2 ± 2.8%.

Consider `COc1cc(Cc2cnc(N)nc2N)cc(OC)c1OC` [Trimethoprim], for which the inhibition at 20 µM was 9.9 ± 4.2% in assay [1], -17 ± 1.9% in assay [2] and -13.7 ± 2.8% in assay [3]. The inhibition at 200 µM in assay [1] was -16.3 ± 6.7%; in assay [2], -13.8 ± 4.1%; in assay [3], -68.1 ± 11.3%.

As for `CC(C)Cc1ccc(C(C)C(=O)O)cc1` (stereo not drawn) [Ibuprofen], the figures for the inhibition at 20 µM in assay [1], in assay [2] and in assay [3] were -5.1 ± 3.6%, -7.5 ± 2.1% and -20.2 ± 5.9%, respectively. The figures for the inhibition at 200 µM in assay [1], in assay [2] and in assay [3] were -33.7 ± 1.4%, -26.1 ± 0.6% and -44.8 ± 7.4%, respectively.

With `C[C@@H](O)[C@H]1C(=O)N2C(C(=O)O)=C(S[C@@H]3CN[C@H](C(=O)Nc4cccc(C(=O)O)c4)C3)[C@H](C)[C@H]12` [Ertapenem], the inhibition at 20 µM is -28.9 ± 4.8% in assay [1], -28.5 ± 4.8% in assay [2] and -4.1 ± 6% in assay [3]. For the same molecule, the inhibition at 200 µM in assay [1] is -15.8 ± 5.9%; in assay [2], -15.1 ± 1.6%; in assay [3], 9.9 ± 3.1%.

In the case of `C[C@]12CCC(=O)C=C1CC[C@H]1[C@@H]3CC[C@](O)(C(=O)CO)[C@@]3(C)C[C@H](O)[C@@]12F` [Fludrocortisone], the inhibition at 20 µM in assay [1] is -29.4 ± 8.1%; in assay [2], -27 ± 6.7%; in assay [3] it was 0.5 ± 3.9%. Moreover, the inhibition at 200 µM in assay [1] was -24.6 ± 1%; in assay [2], -15.1 ± 0.6%; in assay [3] it was -43.9 ± 4.9%.

For `CCOC(=O)[C@H](CCc1ccccc1)N[C@@H](C)C(=O)N1[C@H](C(=O)O)C[C@@H]2CCC[C@@H]21` [Ramipril], the inhibition at 20 µM is 0.3 ± 12% in assay [1], -0.7 ± 11.5% in assay [2] and 0.1 ± 6.9% in assay [3]. For the same molecule, the values for the inhibition at 200 µM in assay [1], in assay [2] and in assay [3] were -5.8 ± 2.3%, -6.5 ± 2% and -31.1 ± 6.9%, respectively.

On to `COc1ccc(Cl)cc1C(=O)NCCc1ccc(S(=O)(=O)NC(=O)NC2CCCCC2)cc1` [Glibenclamide], for which the inhibition at 20 µM in assay [1] is 13.9 ± 3.4%; in assay [2], 12.4 ± 2.8%; in assay [3], 16.8 ± 2.5%. The inhibition at 200 µM in assay [1] came to 14 ± 9.6%; in assay [2] it was 10.1 ± 3%; in assay [3], 8.1 ± 2.1%.

Turning to `COc1ccnc(C[S+]([O-])c2nc3cc(OC(F)F)ccc3[nH]2)c1OC` (stereo not drawn) [Pantoprazole], the values for the inhibition at 20 µM in assay [1], in assay [2] and in assay [3] were 16.7 ± 2.1%, 15.2 ± 1.8% and -4.5 ± 1.7%, respectively. In addition, the inhibition at 200 µM in assay [1] is 10.5 ± 0.9%; in assay [2], 12.5 ± 0.3%; in assay [3], -9.9 ± 3.1%.

Regarding `CC1(C)S[C@@H]2[C@H](NC(=O)[C@H](N)c3ccccc3)C(=O)N2[C@H]1C(=O)O` [Ampicillin], the inhibition at 20 µM is -2.5 ± 2.7% in assay [1], -2.5 ± 2.7% in assay [2] and 20.2 ± 2.8% in assay [3]. The inhibition at 200 µM in assay [1] is 6.7 ± 1.4%; in assay [2], -6.6 ± 3.6%; in assay [3] it was -4.1 ± 2.8%.

On to `C#C[C@]1(O)CC[C@H]2[C@@H]3CCc4cc(O)ccc4[C@H]3CC[C@@]21C` [Ethinylestradiol], for which the inhibition at 20 µM in assay [1] is 7.4 ± 5.9%; in assay [2], 8.2 ± 5.4%; in assay [3] it was -1.6 ± 3.4%. For the same molecule, the results for the inhibition at 200 µM in assay [1], in assay [2] and in assay [3] were -10.5 ± 3.3%, -10.1 ± 0.5% and -35.3 ± 0.8%, respectively.

Consider `COc1ccc2c(c1)[C@]13CCCC[C@@H]1[C@H](C2)N(C)CC3` [Dextromethorphan], for which the inhibition at 20 µM was 7.3 ± 1.9% in assay [1], -0.5 ± 5.8% in assay [2] and -3.3 ± 0.3% in assay [3]. The figures for the inhibition at 200 µM in assay [1], in assay [2] and in assay [3] were 2.9 ± 3.4%, 3.1 ± 0.7% and 6.2 ± 3.4%, respectively.
